Assay results taken from US20240041042A1, “1-(PYRIDYL)-5-AZINYLPYRAZOLE DERIVATIVES, AND THEIR USE FOR CONTROL OF UNDESIRED PLANT GROWTH” (Bayer Aktiengesellschaft, priority 2020, published 2024).
Like-named read-outs stand apart in the source and are kept apart here.

Tests used:
Assay type in all cases: in vivo
[1] = test system: Setaria viridis (SETVI); assay: Post-emergence herbicidal action against SETVI
Description: (§1) Seeds of monocotyledonous and dicotyledonous weeds and crop plants are placed in sandy loam in plastic or organic planting pots, covered with soil and cultivated in a greenhouse under controlled growth conditions. 2 to 3 weeks after sowing, the test plants are treated at the one-leaf stage. The compounds of the invention, formulated in the form of wettable powders (WP) or as emulsion concentrates (EC), are then sprayed onto the green parts of the plants as aqueous suspension or emulsion with addition of 0.5% additive at a water application rate of 600 l/ha (converted). After the test plants have been kept in the greenhouse under optimum growth conditions for about 3 weeks, the activity of the preparations is rated visually in comparison to untreated controls. For example, 100% activity=the plants have died, 0% activity=like control plants.
(§2) Tables B1 to B13 below show the effects of selected compounds of the general formula (I) according to Table 1 on various harmful plants and at an application rate corresponding to 320 g/ha or lower, which were obtained by the experimental procedure mentioned above. The appendices “a”, “b” and “c” give differentiation by dosage used with otherwise the same harmful plants tested.

[2] = test system: Lolium rigidum (LOLRI); assay: Post-emergence herbicidal action against LOLRI
Description: as §1, §2

[3] = test system: Abutilon theophrasti (ABUTH); assay: Post-emergence herbicidal action against ABUTH; conditions: 320 g/ha, visual rating about 3 weeks after treatment vs untreated controls (100% = plants have died, 0% = like control plants)
Description: as §1, §2

[4] = test system: Echinochloa crus-galli (ECHCG); assay: Pre-emergence herbicidal action against ECHCG
From the text: (§3) Seeds of monocotyledonous and dicotyledonous weed plants and crop plants are placed in plastic or organic planting pots and covered with soil. The compounds of the invention, formulated in the form of wettable powders (WP) or as emulsion concentrates (EC), are then applied to the surface of the covering soil as aqueous suspension or emulsion with addition of 0.5% additive at a water application rate equivalent to 600 l/ha. After the treatment, the pots are placed in a greenhouse and kept under good growth conditions for the trial plants. After about 3 weeks, the effect of the preparations is scored visually in comparison with untreated controls as percentages. For example, 100% activity=the plants have died, 0% activity=like control plants.
(§4) Tables A1 to A13 below show the effects of selected compounds of the general formula (I) on various harmful plants and at an application rate corresponding to 320 g/ha or lower, which were obtained by the experimental procedure mentioned above. The appendices “a”, “b” and “c” give differentiation by dosage used with otherwise the same harmful plants tested.

[5] = test system: Matricaria inodora (MATIN); assay: Post-emergence herbicidal action against MATIN
Description: as §1, §2

[6] = test system: Verconica persica (VERPE); assay: Post-emergence herbicidal action against VERPE
Description: as §1, §2

[7] = test system: Alopecurus myosuroides (ALOMY); assay: Pre-emergence herbicidal action against ALOMY; conditions: scored visually after about 3 weeks, 100% = plants have died
From the text: as §3, §4

[8] = test system: Oryza sativa (ORYSA); conditions: crop plant compatibility, effect in comparison to untreated controls
Description: as §1
The observed effects on selected crop plants are reported here in comparison to the untreated controls (values in %). The appendices “a”, “b” and “c” give differentiation by dosage used with otherwise the same crop plants tested.

[9] = test system: Amaranthus retroflexus (AMARE); assay: Post-emergence herbicidal action against AMARE
Description: as §1, §2

[10] = test system: Pharbitis purpurea (PHBPU); assay: Pre-emergence herbicidal action against PHBPU
From the text: as §3, §4

[11] = test system: Lolium rigidum (LOLRI); assay: Pre-emergence herbicidal action against LOLRI
From the text: as §3, §4

[12] = test system: Pharbitis purpurea (PHBPU); assay: Post-emergence herbicidal action against PHBPU
Description: as §1, §2

[13] = test system: Viola tricolor (VIOTR); assay: Pre-emergence herbicidal action against VIOTR
From the text: as §3, §4

[14] = test system: Alopecurus myosuroides (ALOMY); assay: Post-emergence herbicidal action against ALOMY; conditions: 320 g/ha, visual rating about 3 weeks after treatment vs untreated controls (100% = plants have died, 0% = like control plants)
Description: as §1, §2

[15] = test system: Matricaria inodora (MATIN); assay: Pre-emergence herbicidal action against MATIN
From the text: as §3, §4

[16] = test system: Echinochloa crus-galli (ECHCG); assay: Post-emergence herbicidal action against ECHCG
Description: as §1, §2

[17] = test system: Polygonum convolvulus (POLCO); assay: Pre-emergence herbicidal action against POLCO
From the text: as §3, §4

[18] = test system: Amaranthus retroflexus (AMARE); assay: Pre-emergence herbicidal action against AMARE; conditions: visual scoring after about 3 weeks vs untreated controls
From the text: as §3, §4

[19] = test system: Verconica persica (VERPE); assay: Pre-emergence herbicidal action against VERPE
From the text: as §3, §4

[20] = test system: Setaria viridis (SETVI); assay: Pre-emergence herbicidal action against SETVI
From the text: as §3, §4

[21] = test system: Avena fatua (AVEFA); assay: Pre-emergence herbicidal action against AVEFA; conditions: 320 g/ha, visual scoring after about 3 weeks vs untreated controls
From the text: as §3, §4

[22] = test system: Viola tricolor (VIOTR); assay: Post-emergence herbicidal action against VIOTR
Description: as §1, §2

[23] = test system: Polygonum convolvulus (POLCO); assay: Post-emergence herbicidal action against POLCO
Description: as §1, §2

[24] = test system: Avena fatua (AVEFA); assay: Post-emergence herbicidal action against AVEFA; conditions: visual rating about 3 weeks after treatment
Description: as §1, §2

[25] = 320 g/ha, visual rating about 3 weeks after treatment

| Structure (SMILES) | Post-emergence action against SETVI in % ([1]; dosage 80 g/ha) | Post-emergence action against SETVI in % ([1]; dosage 320 g/ha) | Post-emergence action against LOLRI in % ([2]; dosage 320 g/ha) | Post-emergence action against ABUTH in % [3] | Pre-emergence action against ECHCG in % ([4]; dosage 80 g/ha) | Pre-emergence action against ECHCG in % ([4]; dosage 320 g/ha) | Post-emergence action against VERPE in % ([6]; 320 g/ha, VERPE) | Pre-emergence action against ALOMY ([7]; 80 g/ha) | Pre-emergence action against ALOMY ([7]; 320 g/ha) | Post-emergence action against ORYSA in % ([8]; 80 g/ha) | Post-emergence action against AMARE in % [9, 25] | Pre-emergence action against PHBPU in % ([10]; dosage 320 g/ha) | Pre-emergence action against LOLRI in % ([11]; dosage 320 g/ha) | Pre-emergence action against VIOTR in % ([13]; 320 g/ha, Viola tricolor) | Pre-emergence action against VIOTR in % ([13]; dosage 80 g/ha) | Post-emergence action against ALOMY in % [14] | Pre-emergence action against MATIN in % ([15]; dosage 320 g/ha) | Post-emergence action against ECHCG in % ([16]; dosage 80 g/ha) | Post-emergence action against ECHCG in % ([16]; dosage 320 g/ha) | Pre-emergence action against POLCO in % ([17]; dosage 80 g/ha) | further results |
| --- | --- | --- | --- | --- | --- | --- | --- | --- | --- | --- | --- | --- | --- | --- | --- | --- | --- | --- | --- | --- | --- |
| COC(=O)COc1nn(-c2nc(F)ccc2F)c(-c2cncc(F)c2)c1Br [Example I-210] | 80% | 80% | 80% | 80% | 90% | 100% | 90% | 80% | 90% | 10% | 80% | 90% | 80% | 100% | 90% | 90% | 90% | 80% | 80% | 90% | Post-emergence action against MATIN in % ([5]; dosage 80 g/ha): 80%; Post-emergence action against MATIN in % ([5]; dosage 320 g/ha): 80%; Post-emergence action against VERPE in % ([6]; dosage 80 g/ha): 90%; Pre-emergence action against PHBPU in % ([10]; dosage 80 g/ha): 90%; Post-emergence action against PHBPU in % ([12]; dosage 80 g/ha): 90%; Post-emergence action against PHBPU in % ([12]; dosage 320 g/ha): 100%; Pre-emergence action against MATIN in % ([15]; dosage 80 g/ha): 90%; Pre-emergence action against POLCO in % ([17]; dosage 320 g/ha): 100%; Pre-emergence action against AMARE in % ([18]; 80 g/ha): 80%; Pre-emergence action against AMARE in % ([18]; 320 g/ha): 100%; Pre-emergence action against VERPE in % ([19]; dosage 320 g/ha): 100%; Pre-emergence action against SETVI in % ([20]; dosage 80 g/ha): 90%; Pre-emergence action against SETVI in % ([20]; dosage 320 g/ha): 100% |
| CC(NC(=O)[C@@H](C)Oc1nn(-c2ccccn2)c(-c2ccc(F)nc2)c1Cl)C(=O)O (some centres unmarked) [Example I-350] | 80% | 90% | 90% | 90% | 100% | 100% | 90% | 100% | 100% | 0% | 90% | 80% | 100% | 100% | 100% | 90% | 90% | 80% | 90% | 90% | Post-emergence action against LOLRI in % ([2]; dosage 80 g/ha): 80%; Pre-emergence action against AVEFA in % [21]: 100%; Post-emergence action against ORYSA in % ([8]; 320 g/ha): 10%; Post-emergence action against AMARE in % ([9]; 80 g/ha, visual rating about 3 weeks after treatment vs untreated controls (100% = plants have died, 0% = like control plants)): 90%; Pre-emergence action against LOLRI in % ([11]; dosage 80 g/ha): 100%; Pre-emergence action against POLCO in % ([17]; dosage 320 g/ha): 90%; Post-emergence action against VIOTR in % ([22]; 80 g/ha): 90%; Post-emergence action against VIOTR in % ([22]; 320 g/ha): 90%; Pre-emergence action against AMARE in % ([18]; 80 g/ha): 100%; Pre-emergence action against AMARE in % ([18]; 320 g/ha): 100%; Pre-emergence action against VERPE in % ([19]; dosage 80 g/ha): 90%; Pre-emergence action against VERPE in % ([19]; dosage 320 g/ha): 100%; Post-emergence action against POLCO in % ([23]; dosage 80 g/ha): 80%; Post-emergence action against POLCO in % ([23]; dosage 320 g/ha): 90%; Pre-emergence action against SETVI in % ([20]; dosage 80 g/ha): 100%; Pre-emergence action against SETVI in % ([20]; dosage 320 g/ha): 100%; Post-emergence action against AVEFA in % ([24]; 80 g/ha): 90%; Post-emergence action against AVEFA in % ([24]; 320 g/ha): 90% |
